# Results from US7863313B2, “Methods for the treatment of inflammatory diseases” (Cortical PTY LTD, priority 2003, dated 2011).
# Marks after values point to notes of the source that are not given here.
# What was measured:
# [1] = test system: LPS-induced serum IL-1, IL-6, and TNF; assay: Mouse endotoxic shock model (serum cytokines by ELISA); format: in vivo
# From the text: The activity of compounds was studied in the murine endotoxic shock model. In this model, features of shock, characterised by increased serum levels of cytokines such as IL-1, tumor necrosis factor (TNF), and interleukin 6 (IL-6), are induced by the injection of bacterial lipoloysaccharide (LPS). The in vivo production of IL-1, IL-6, and TNF in response to endotoxin has been previously shown to be dependent on MIF ^(23).
# Groups of four mice were used in each experiment. Endotoxaemia was induced by intra-peritoneal injection of lipopolysaccharide (LPS) (5 mg/kg) in 300 μl saline. Mice injected with saline alone were used as a control group. Treatments were administered by intra-peritoneal injection at intervals 24 hours and 1 hour before intra-peritoneal LPS injection. Mice were treated with saline, compounds dissolved in DMSO/saline vehicle at a dose of 5-15 mg/kg body weight, or vehicle (containing matching concentrations of DMSO).
# After 1.5 hours mice were humanely killed by CO2 inhalation then neck dislocation. Serum was obtained from blood obtained by cardiac puncture prior to death and measured for the concentration of cytokines including IL-1, TNF, and/or IL-6, by ELISA. Statistical significance was analysed using the Mann-Whitney test.
# [2] = test system: LPS-IFN—induced nitrite production; assay: MIF-dependent nitrite production in peritoneal macrophages (Greiss assay); format: cell-based, mouse; details: for inhibition at 100 µM: Mus musculus, Peritoneal macrophage, compound 100 μM, LPS 10 ng/ml + interferon-γ 10 units/ml, 24 h, read-out: % Inhibition of nitrite (± SD)
# Description: MIF is able to induce or facilitate the expression and release of a wide variety of pro-inflammatory and/or destructive molecules, including the release of macrophage nitric oxide (NO) ^(20). A compound with the ability to inhibit the cytokine or biological function of MIF might be expected to inhibit the activation of NO production by macrophages.
# C57BL6/J male mice were injected intraperitoneally with 2 ml of thioglycolate. Three days later peritoneal macrophages were collected by lavaging the peritoneum with 3 ml of cold Hank's buffered saline solution. Cells from several mice were pooled, washed and re-suspended in DMEM supplemented with 5% FCS. Cells were plated in 96 well plastic tissue culture plates at 1×10^5 cells/well. Cells were treated in triplicate wells with compound or vehicle for 1 hour in a 5% CO2 incubator at 37° C. Cells were then treated with LPS (10 ng/ml) and recombinant human interferon-γ (10 units/ml) and incubated for 24 hours. After 24 hours, 50 μl of supernatant from each well was carefully removed and transferred to ELISA plates. The production of NO was measured by analysing the concentration of nitrite in culture supernatants, as measured by the Greiss assay ^(21). The results were calculated as the percentage inhibition of nitrite concentration in compound-treated cell culture supernatants, compared to that of vehicle-treated cells.
# [3] = test system: MIF-induced proliferation of mouse NIH 3T3 fibroblasts; assay: MIF-induced proliferation in mouse fibroblasts (3H-thymidine incorporation); format: cell-based; details: Compound (10×^10−6M) + MIF 50 ng/ml; nil 1087, MIF + vehicle 1452
# Description: The activity of compounds was studied in a bioassay utilising MIF-induced proliferation of mouse NIH 3T3 fibroblasts. […] NIH 3T3 cells were propagated in DMEM/10% foetal calf serum (FCS). Prior to experimentation, cells were seeded at 10^4 cells/well in 96-well plates in DMEM/10% FCS for 18 hours. The media was then replaced with DMEM/0.1% FCS and the cells incubated for a further 18 hr. At time point −1 hr, culture medium was replaced with DMEM/0.1% FCS and cells were treated with a compound of the invention at a final concentration of 10 μM or vehicle. At time point zero, cells were treated with MIF at a final concentration of 50 ng/ml. At time point 6 hr the cells were pulsed with 1 µCi/well of ^3H-thymidine. At time point 24 hours, cells were harvested using a semi-automated cell harvester. The radioactivity incorporated into DNA was determined by liquid scintillation counting, with results expressed as ^3H-thymidine incorporation (cpm). Statistical significance was analysed using the Mann-Whitney test.
# [4] = test system: IL-1 induced COX-2 expression; assay: Combination of MIF-antagonist with glucocorticoid: IL-1 induced fibroblast COX-2 expression; format: cell-based, human; details: for Mean COX-2 expression (MFI): control 0.7400, IL-1 49.37
# Description: (§1) S112 human dermal fibroblasts were propagated in RPMI/10% foetal calf serum (FCS). Prior to experimentation, cells were seeded at 2×10^5 cells/ml in RPMI/0.1% BSA for 18 hours. Cells were treated with compound at 1-100 μM and 30 minutes later with recombinant human IL-1 (0.1 ng/ml). After 6 hours, cells were collected and intracellular COX-2 protein determined by permeabilisation flow cytometry, as described by Sampey et al ^(18). Cells permeabilised with 0.2% saponin were sequentially labelled with a mouse anti-human COX-2 monoclonal antibody and with sheep-anti-mouse F(ab)2 fragment labelled with fluoroscein isothiocyanate. Cellular fluorescence was determined using a flow cytometer. At least 5000 events were counted for each reading, each of which was performed in duplicate, and the results expressed in mean fluorescence intensity (MFI) after subtraction of negative control-labelled cell fluorescence.
# The above in vitro assay (Biological Example 2) for analysing the effect of MIF antagonists on IL-1 induced COX-2 expression was performed using 2-(2-hydroxyethoxy)-2-(4′-hydroxy-3′-methylphenyl)-1,3-dioxolane (Compound 1) (50 μM), dexamethasone (1 nM) or a combination of dexamethasone (1 nM) and Compound 1 (50 μM). COX-2 expression was expressed as the mean fluorescence intensity (MFI) as measured by flow cytometry, after deduction of the MFI for control-labelled samples, as described by Sampey et al. ^(18).
# [5] = test system: MIF-induced proliferation of S112 human fibroblasts; assay: MIF-induced human fibroblast proliferation (3H-thymidine incorporation); format: cell-based
# Description: The activity of a compound of formula (I) was studied in a bioassay utilising MIF-induced proliferation of human dermal fibroblasts. […] S112 human dermal fibroblasts were propagated in RPMI/10% foetal calf serum (FCS). Prior to experimentation, cells were seeded at 10^5 cells/ml in RPMI/0.1% BSA for 18 hours. Cells were treated with recombinant human macrophage migration inhibitory factor (MIF) 50 ng/ml and/or a compound of the invention at a concentration of 1 nM. The compound was combined with MIF at time point −30 minutes, prior to adding to cell culture at time point zero. At time point zero, culture medium was replaced with RPMI/10% FCS and treatments administered. At time point 30 hours, cells were pulsed with 1 μCi ^3H-thymidine. At time point 48 hours, cells were harvested using a semi-automated cell harvester. The radioactivity incorporated into DNA was determined by liquid scintillation counting, with results expressed as ^3H-thymidine incorporation.
# [6] = test system: IL-1 induced COX-2 expression; assay: MIF-dependent IL-1 induced fibroblast cyclooxygenase-2 expression (flow cytometry); format: cell-based, human; details: for Mean % inhibition COX2 expression: S112 fibroblasts, IL-1 0.1 ng/ml, 6 h
# From the text: The activity of the compounds of formula (I) were further studied in a bioassay utilising MIF-dependent activation of human dermal fibroblasts. Sampey et al have shown that induction of the expression of cyclooxygenase-2 (COX-2) by the cytokine interleukin 1 (IL-1) is dependent upon the presence of MIF, i.e. can be prevented using specific anti-MIF monoclonal antibody ^(17). IL-1-induced COX-2 expression is therefore a MIF-dependent event.
# as §1, with “Cells were treated with compound at 1-100 μM and 30 minutes later with recombinant human IL-1 (0.1 ng/ml).” left out
# In Table 2 and FIG. 2, the effect of each concentration of 2-(2-hydroxyethoxy)-2-(4-hydroxy-3-methylphenyl)-1,3-dioxolane (Compound 1) was determined by subtracting the IL-1+ compound-treated cell MFI from the IL-1-treated cell MFI, and expressed as % inhibition.
# [7] = test system: S112 human dermal fibroblasts; assay: Cytotoxicity: apoptosis by annexin V and propidium iodide flow cytometry; format: cell-based; details: 50 μM versus control-treated cells; FIG. 7
# From the text: A valuable characteristic of a therapeutic material is a lack of toxicity. The compounds of formula (I) may have low toxicity towards cells. To examine this in vitro, the ability of 2-(2-hydroxyethoxy)-2-(4-hydroxy-3-methylphenyl)-1,3-dioxolane (Compound 1) to induce apoptosis (“programmed cell death) was investigated. A lack of cytotoxicity would be evidenced by the finding of equivalent proportions of apoptotic and viable cells in control- and compound-treated cells.
# To examine the cytotoxicity of compounds of formula (I), S112 human dermal fibroblasts were exposed to a therapeutic concentration (50 μM) of 2-(2-hydroxyethoxy)-2-(4-hydroxy-3-methylphenyl)-1,3-dioxolane (Compound 1) or vehicle (control) and analysed for apoptosis by flow cytometric analysis of annexin V and propidium iodide staining, as described by Leech et al. ^(19). Toxicity was assessed by analysis of apoptosis using flow cytometric detection of cell surface Annexin V binding and propidium iodide staining. At least 5000 events were analysed for each experiment. Cells positive for both Annexin V and propidium iodide were designated as apoptotic and cells negative for both Annexin V and propidium iodide were designated as viable. Results are expressed as the percentage (%) of cells with each of these labels.
smiles,measurement,setting,value
"CCCCCCC1(c2ccc(C)cc2)SCCS1 [Compound 17, 2-Hexyl-2-(4-methylphenyl)-1,3-dithiolane]",inhibition of LPS-induced serum IL-6,"[1]; 5 and 15 mg/kg, FIG. 10b",marked inhibition
same,inhibition of LPS-induced serum TNF,"[1]; 5 and 15 mg/kg, FIG. 10c",marked inhibition
same,inhibition of LPS-induced serum IL-1,"[1]; 5 and 15 mg/kg, statistically significant P<0.05, FIG. 10a",marked inhibition
same,inhibition at 100 µM,[2],69 ± 2%
same,Mean cpm (3H-thymidine incorporation),[3],933.2 cpm
"COc1ccc(C2NCCS2)cc1OC (stereo not shown) [Compound 8, 2-(3,4-Dimethoxyphenyl)-1,3-thiazolane]",melting point,,54 to 56 °C
same,Mean cpm (3H-thymidine incorporation),[3],1238 cpm
"Cc1ccc(-c2cnn(CCC(C)C)c2)cc1 [Compound 13, 1-(3-Methylbutyl)-4-(4-methylphenyl)-1H-pyrazole]",effect on serum IL-1,[1]; 5 mg/kg,inhibitory effect
same,"IL-1 (pg/ml), serum","[1]; 5 mg/kg i.p. 24 h and 1 h before LPS 5 mg/kg, 1.5 h after LPS, saline 175 ± 43, LPS plus vehicle 428 ± 168",305 ± 51 pg/mL
same,effect on serum IL-6,[1]; 15 mg/kg,inhibitory effect
same,effect on serum TNF,[1]; 15 mg/kg,inhibitory effect
same,"IL-6 (ng/ml), serum","[1]; 15 mg/kg i.p. 24 h and 1 h before LPS 5 mg/kg, 1.5 h after LPS, saline 4 ± 4, LPS plus vehicle 118 ± 30",92 ± 7 ng/mL
same,"TNF (pg/ml), serum","[1]; 15 mg/kg i.p. 24 h and 1 h before LPS 5 mg/kg, 1.5 h after LPS, saline 189 ± 69, LPS plus vehicle 2022 ± 1245",1067 ± 191 pg/mL
same,inhibition of LPS-IFN—induced nitrite production,"[2]; 0.5-100 μM, FIG. 8",dose-responsive inhibition
same,inhibition at 100 µM,[2],91 ± 8%
same,Mean cpm (3H-thymidine incorporation),[3],1015 cpm
"C[C@@H]1C[C@H]2[C@@H]3CCC4=CC(=O)C=C[C@]4(C)[C@@]3(F)[C@@H](O)C[C@]2(C)[C@@]1(O)C(=O)CO [DEX, dexamethasone, reference compound]",Mean COX-2 expression (MFI),[4]; IL-1 + dexamethasone 1 nM alone,15.13 MFI
"COc1cc(C2NCCS2)ccc1O (stereo not shown) [Compound 7, 2-(4-Hydroxy-3-methoxyphenyl)-1,3-thiazolane]",inhibition at 100 µM,[2],15 ± 1%
same,melting point,,158 to 161 °C
same,Mean cpm (3H-thymidine incorporation),[3],1281 cpm
"COc1ccc(C2NCCS2)cc1 (stereo not shown) [Compound 5, 2-(4-Methoxyphenyl)-1,3-thiazolane]",inhibition at 100 µM,[2],22 ± 2%
same,melting point,,94 to 95 °C
"Brc1ccc(C2NCCS2)cc1 (stereo not shown) [Compound 4, 2-(4-Bromophenyl)-1,3-thiazolane]",inhibition at 100 µM,[2],22 ± 1%
same,melting point,,107 °C
"Cc1cc(C2(OCCO)OCCO2)ccc1O [Compound 1, 2-(2-hydroxyethoxy)-2-(4-hydroxy-3-methylphenyl)-1,3-dioxolane]",Mean cpm (3H-thymidine incorporation),"[5]; S112 cells, MIF 50 ng/ml + compound 1 nM, untreated 3245, MIF alone 4415, n=9",2994* cpm
same,inhibition of MIF-induced S112 human fibroblast proliferation,"[5]; compound 1 nM pre-incubated with MIF, P<0.05",significantly inhibited
same,Mean % inhibition COX2 expression,[6]; 0.01 μM,10.5%
same,Mean % inhibition COX2 expression,[6]; 0.1 μM,13.2%
same,Mean % inhibition COX2 expression,[6]; 1 μM,15.6* %
same,Mean % inhibition COX2 expression,[6]; 10 μM,19.5* %
same,reduction in IL-1 induced COX-2 expression,"[6]; 50 μM, P<0.01, FIG. 2",significant reduction
same,Mean % inhibition COX2 expression,[6]; 50 μM,31.4* %
same,dose dependence of reduction in COX-2 expression,[6]; Table 2 and FIG. 3,dose-dependent reduction
same,Mean COX-2 expression (MFI),[4]; IL-1 + dexamethasone 1 nM + Compound 1 50 μM,6.013* MFI
same,enhancement of dexamethasone inhibition of IL-1-induced COX-2 expression,"[4]; dexamethasone 1 nM + Compound 1 50 μM versus dexamethasone alone, P<0.05",significantly greater inhibition
same,apoptotic cell numbers (Annexin V and propidium iodide positive),[7],No significant increase
same,viable cell numbers (Annexin V and propidium iodide negative),[7],no significant decrease
